Measurements published in patent publication US20220408724A1, “METHOD FOR CONTROLLING METABOLISM OF BRANCHED FATTY ACID” (KAO CORPORATION, priority 2019, published 2022).

What follows are compounds tested on Micrococcus aloeverae (assay: Measurement of viable bacterial count on fabric). Settings: agent 250 μg/fabric g.
Assay type: cell-based
Method: (§1) After culture on fabric prepared in the same manner as in the above (1), 9 mL of an LP diluent (manufactured by NIHON PHARMACEUTICAL CO., LTD.) was added, and the extraction of the bacteria was carried out under ultrasound for 10 minutes. The extraction liquid was poured and mixed to an SCD-LP agar medium (NIHON PHARMACEUTICAL CO., LTD.), and culture was thereafter carried out at 37° C.; for a day. The number of colonies obtained on each piece of the fabric was counted, and a common logarithm value thereof was measured as the viable bacterial count. […] In addition, the […], the more the viable bacterial count of the microorganism is maintained.
(§2) The metabolism of 14-methylhexadecanoic acid by bacteria of the genus Micrococcus was tested in the same manner as in example 1.
(§3) In this example, Micrococcus aloeverae (strain isolated from clothing) was used as a microorganism.
(§4) Further, in this example, a bacterial suspension of 10^7 (CFU/ml) prepared by using an SCD liquid medium (NIHON PHARMACEUTICAL CO., LTD.) diluted to 1/10 with ion exchange water was used as a bacterial suspension.
(§5) Note that, in this example, C12OH (1-dodecanol) was used as the metabolism controlling agent.
With `CCCCCCCCCCO` [Example C10OH, 1-decanol] the “Bacterial count (Log (cfu/fabric cm^2))” value was 7.0 Log (cfu/fabric cm^2). `CCCCCCCCCCCCOCCOCCO` [Example C12E2, diethylene glycol mono-1-dodecyl ether, reference compound] was tested, and the “Bacterial count (Log (cfu/fabric cm^2))” value was 6.8 Log (cfu/fabric cm^2). In the case of `CCCCCCCCCCCCCO` [Example C13OH, 1-tridecanol], the “Bacterial count (Log (cfu/fabric cm^2))” value is reported as 6.7 Log (cfu/fabric cm^2). `CCCCCCCCCCCCCCCCCCO` [Example C18OH, 1-octadecanol, reference compound] was tested, and the “Bacterial count (Log (cfu/fabric cm^2))” value was 6.8 Log (cfu/fabric cm^2).

The compounds below were run on Staphylococcus aureus (assay: Suppression of metabolism of 14-methylhexadecanoic acid on cotton fabric). Settings: agent 250 μg/fabric g.
Assay type: cell-based
Method: (§6) A methanol solution in which 14-methylhexadecanoic acid (SIGMA-ALDRICH) was dissolved was added dropwise to 3 cm×3 cm pieces of sterilized plain-weave cotton fabric to make it adhered to the fabric. The adhesion amount of 14-methylhexadecanoic acid was set to 10 μg per piece of the plain-weave cotton fabric (100 μg/fabric g).
(§7) Further, a methanol solution in which each metabolism controlling agent was dissolved was prepared and added dropwise to the fabric to which 14-methylhexadecanoic acid adhered, and it was thereafter dried for an hour. This fabric was placed in a sterilized screw tube bottle No. 3 (Maruemu Corporation) and 100 μl of the bacterial suspension was inoculated thereto, and culture was carried out under 37° C.; conditions for 21 hours.
(§8) 3 ml of methanol was added to the screw tube bottle after culture, and extraction was carried out under ultrasonic irradiation for 30 minutes (20° C.). The extraction liquid was mixed with a (trimethylsilyl)diazomethane hexane solution (FUJIFILM Wako Pure Chemical Corporation) at 9:1 (volume ratio) and left overnight under room temperature and dark place conditions. After that, 14-methylhexadecanoic acid remaining on the fabric was quantified by GC. The quantification conditions for GC are as follows. • GC: Agilent 7890A • GC column: Agilent DB-1 30 m×250 μm×0.25 μm • Temperature rise condition: 50° C. (held for 3 minutes)-(10° C./min)-300° C. (held for 5 minutes) • Sample injection volume: 1 μl • Split ratio: 1:12 • Detector: FID
(§9) The residual amount of 14-methylhexadecanoic acid after culture on the fabric to which the metabolism controlling agent was added was quantified, and the ratio of the residual amount to that of 14-methylhexadecanoic acid in the case of adding no metabolism controlling agent (control) was calculated as a metabolism suppression rate (%). The higher a numerical value thereof is, the more the metabolism is suppressed. Note that the metabolism suppression rate was determined by the following formula:
(§10) Metabolism suppression rate(%)=[1−(100−A)/(100−B)]×100 • A: residual amount of 14-methylhexadecanoic acid of example or comparative example (μg/fabric g) • B: residual amount of 14-methylhexadecanoic acid of control (μg/fabric g)
(§11) The metabolism of 14-methylhexadecanoic acid by bacteria of the genus Staphylococcus (Staphylococcus aureus) was tested in the same manner as in example 1.
(§12) In this example, Staphylococcus aureus (strain isolated from clothing) was used as a microorganism.
(§13) Further, in this example, a bacterial suspension of 10^7 (CFU/ml) prepared by using an NB liquid medium diluted to 1/10 with ion exchange water was used as a bacterial suspension.
`CCCCCCCCCCO` [Example C10OH, 1-decanol] was tested, and the “Metabolism suppression rate (%)” value was 16%. In the case of `CCCCCCCCCCCCOCCOCCO` [Example C12E2, diethylene glycol mono-1-dodecyl ether, reference compound], the “Metabolism suppression rate (%)” value is reported as 7%. In the case of `CCCCCCCCCCCCCCCCCCO` [Example C18OH, 1-octadecanol, reference compound], the “Metabolism suppression rate (%)” value is reported as −1%.

The compounds below were run on Escherichia coli (NBRC3972) (assay: Suppression of metabolite 4-methylhexanoic acid from 14-methylhexadecanoic acid). Settings: agent 500 μg/fabric g.
Assay type: cell-based
Method: (§14) After culture on fabric prepared in the same manner as in the above (1), 3 ml of methanol was added, and extraction was carried out under ultrasonic irradiation for 30 minutes (20° C.). The extraction liquid was mixed with (a 1000 ppm methanol solution of) an ADAM reagent of Funakoshi Co., Ltd. at 1:1 (volume ratio) and left overnight under room temperature and dark place conditions. After that, 4-methyl-3-hexenoic acid as a metabolite from 14-methylhexadecanoic acid was quantified by HPLC. The quantification conditions are as follows.
(§15) The production amount of 4-methyl-3-hexenoic acid after culture on the fabric to which each metabolism controlling agent was added was quantified, and the ratio of the production amount to that of 4-methyl-3-hexenoic acid in the case of adding no metabolism controlling agent (control) was calculated as a metabolite suppression rate (%). The higher a numerical value thereof is, the more the metabolism is suppressed. Note that the metabolite suppression rate was determined by the following formula:
(§16) Metabolite suppression rate(%)=100×[(D−C)/D] • C: production amount of metabolite of example or comparative example (μg/fabric g) • D: production amount of metabolite of control (μg/fabric g)
(§17) The metabolism of 14-methylhexadecanoic acid by bacteria of the genus Escherichia (Escherichia coli) was tested in the same manner as in example 1.
(§18) In this example, Escherichia coli (NBRC3972) was used as a microorganism.
(§19) Further, in this example, a bacterial suspension of 10^6 (CFU/ml) prepared by using an NB liquid medium diluted to 1/10 with ion exchange water was used as a bacterial suspension.
(§20) Further, in this example, 4-methylhexanoic acid was quantified as a metabolite from 14-methylhexadecanoic acid, and the metabolite suppression rate was determined in the same manner as in example 1.
as §5
`CCCCCCCCCCO` [Example C10OH, 1-decanol] was tested, and the “Metabolite suppression rate (%)” value was 42%. `CCCCCCCCCCCCOCCOCCO` [Example C12E2, diethylene glycol mono-1-dodecyl ether, reference compound] was tested, and the “Metabolite suppression rate (%)” value was −2%.

Same assay, conditions: agent 1000 μg/fabric g
In the case of `CCCCCCCCCCO` [Example C10OH, 1-decanol], the “Metabolite suppression rate (%)” value is reported as 75%. In the case of `CCCCCCCCCCCCCCCCCCO` [Example C18OH, 1-octadecanol, reference compound], the “Metabolite suppression rate (%)” value is reported as 0%.

These compounds were tested on Micrococcus aloeverae (assay: Suppression of metabolism of 14-methylhexadecanoic acid on cotton fabric). Settings: agent 250 μg/fabric g.
Assay type: cell-based
Method: as §6, §7, §8, §9, §10, §2, §3, §4, §5
For `CCCCCCCCCCO` [Example C10OH, 1-decanol], the “Metabolism suppression rate (%)” value was 33%. In the case of `CCCCCCCCCCCCOCCOCCO` [Example C12E2, diethylene glycol mono-1-dodecyl ether, reference compound], the “Metabolism suppression rate (%)” value is reported as −11%. `CCCCCCCCCCCCCO` [Example C13OH, 1-tridecanol] was tested, and the “Metabolism suppression rate (%)” value was 41%. In the case of `CCCCCCCCCCCCCCCCCCO` [Example C18OH, 1-octadecanol, reference compound], the “Metabolism suppression rate (%)” value is reported as −7%.

The compounds below were run on Rhodotorula mucilaginosa in the same assay as above. Settings: agent 250 μg/fabric g.
Assay type: cell-based
Method: as §6, §7, §8, §9, §10
The metabolism of 14-methylhexadecanoic acid by yeast of the genus Rhodotorula was tested in the same manner as in example 1.
In this example, Rhodotorula mucilaginosa (strain isolated from clothing) was used as a microorganism.
Further, in this example, the bacteria were precultured under conditions of a PDA agar medium (Difco), 30° C.; and 48 hours.
Further, in this example, a bacterial suspension of 10^7 (CFU/ml) prepared by using a PDB liquid medium (Difco) diluted to 1/10 with ion exchange water was used as a bacterial suspension.
`CCCCCCCCCCO` [Example C10OH, 1-decanol] was tested, and the “Metabolism suppression rate (%)” value was 51%. `CCCCCCCCCCCCCCCCCCO` [Example C18OH, 1-octadecanol, reference compound] was tested, and the “Metabolism suppression rate (%)” value was 2%.

The compounds below were run on Staphylococcus aureus (assay: Measurement of viable bacterial count on fabric). Settings: agent 250 μg/fabric g.
Assay type: cell-based
Method: as §1, §11, §12, §13, §5
In the case of `CCCCCCCCCCO` [Example C10OH, 1-decanol], the “Bacterial count (Log (cfu/fabric cm^2))” value is reported as 5.5 Log (cfu/fabric cm^2). `CCCCCCCCCCCCCCCCCCO` [Example C18OH, 1-octadecanol, reference compound] was tested, and the “Bacterial count (Log (cfu/fabric cm^2))” value was 5.6 Log (cfu/fabric cm^2).

These compounds were tested on Rhodotorula mucilaginosa (assay: Suppression of metabolite 4-methylhexanoic acid from 14-methylhexadecanoic acid). Settings: agent 250 μg/fabric g.
Assay type: cell-based
Method: The extraction liquid was mixed with (a 1000 ppm methanol solution of) an ADAM reagent of Funakoshi Co., Ltd. at 1:1 (volume ratio) and left overnight under room temperature and dark place conditions. […] The quantification conditions are as follows. […] The higher a numerical value thereof is, the more the metabolism is suppressed. Note that the metabolite suppression rate was determined by the following formula: […] In this example, Rhodotorula mucilaginosa (strain isolated from clothing) was used as a microorganism. Further, in this example, the bacteria were precultured under conditions of a PDA agar medium (Difco), 30° C.; and 48 hours. Further, in this example, a bacterial suspension of 10^7 (CFU/ml) prepared by using a PDB liquid medium (Difco) diluted to 1/10 with ion exchange water was used as a bacterial suspension.
With `CCCCCCCCCCO` [Example C10OH, 1-decanol] the “Metabolite suppression rate (%)” value was 46%.

What follows are compounds tested on Staphylococcus aureus in the same assay as above. Settings: agent 250 μg/fabric g.
Assay type: cell-based
Method: as §14, §15, §16, §11, §12, §13, §20, §5
With `CCCCCCCCCCO` [Example C10OH, 1-decanol] the “Metabolite suppression rate (%)” value was 35%.

What follows are compounds tested on Escherichia coli (NBRC3972) (assay: Suppression of metabolism of 14-methylhexadecanoic acid on cotton fabric). Settings: agent 500 μg/fabric g.
Assay type: cell-based
Method: as §6, §7, §8, §9, §10, §17, §18, §19, §5
`CCCCCCCCCCO` [Example C10OH, 1-decanol] was tested, and the “Metabolism suppression rate (%)” value was 16%. With `CCCCCCCCCCCCOCCOCCO` [Example C12E2, diethylene glycol mono-1-dodecyl ether, reference compound] the “Metabolism suppression rate (%)” value was −2%. In the case of `CCCCCCCCCCCCCCCCCCO` [Example C18OH, 1-octadecanol, reference compound], the “Metabolism suppression rate (%)” value is reported as −15%.

Same assay, conditions: agent 1000 μg/fabric g
`CCCCCCCCCCO` [Example C10OH, 1-decanol] was tested, and the “Metabolism suppression rate (%)” value was 38%. `CCCCCCCCCCCCCCCCCCO` [Example C18OH, 1-octadecanol, reference compound] was tested, and the “Metabolism suppression rate (%)” value was 3%.

What follows are compounds tested on Micrococcus aloeverae (assay: Suppression of metabolite 2-methylbutanoic acid from 14-methylhexadecanoic acid). Settings: agent 250 μg/fabric g.
Assay type: cell-based
Method: as §14, §15, §16, §2, §3, §4
Further, in this example, 2-methylbutanoic acid was quantified as a metabolite from 14-methylhexadecanoic acid, and the metabolite suppression rate was determined in the same manner as in example 1.
as §5
`CCCCCCCCCCO` [Example C10OH, 1-decanol] was tested, and the “Metabolite suppression rate (%)” value was 51%. In the case of `CCCCCCCCCCCCOCCOCCO` [Example C12E2, diethylene glycol mono-1-dodecyl ether, reference compound], the “Metabolite suppression rate (%)” value is reported as 8%. In the case of `CCCCCCCCCCCCCO` [Example C13OH, 1-tridecanol], the “Metabolite suppression rate (%)” value is reported as 59%. `CCCCCCCCCCCCCCCCCCO` [Example C18OH, 1-octadecanol, reference compound] was tested, and the “Metabolite suppression rate (%)” value was 1%.

What follows are compounds tested on Escherichia coli (NBRC3972) (assay: Measurement of viable bacterial count on fabric). Settings: agent 500 μg/fabric g.
Assay type: cell-based
Method: as §1, §17, §18, §19, §5
With `CCCCCCCCCCO` [Example C10OH, 1-decanol] the “Bacterial count (Log (cfu/fabric cm^2))” value was 6.5 Log (cfu/fabric cm^2). With `CCCCCCCCCCCCOCCOCCO` [Example C12E2, diethylene glycol mono-1-dodecyl ether, reference compound] the “Bacterial count (Log (cfu/fabric cm^2))” value was 6.5 Log (cfu/fabric cm^2). With `CCCCCCCCCCCCCCCCCCO` [Example C18OH, 1-octadecanol, reference compound] the “Bacterial count (Log (cfu/fabric cm^2))” value was 6.2 Log (cfu/fabric cm^2).

Same assay, conditions: agent 1000 μg/fabric g
In the case of `CCCCCCCCCCO` [Example C10OH, 1-decanol], the “Bacterial count (Log (cfu/fabric cm^2))” value is reported as 6.4 Log (cfu/fabric cm^2). For `CCCCCCCCCCCCCCCCCCO` [Example C18OH, 1-octadecanol, reference compound], the “Bacterial count (Log (cfu/fabric cm^2))” value was 5.9 Log (cfu/fabric cm^2).
